24 compounds from patent US8524917B2, “6-substituted indole-3-carboxylic acid amide compounds having sphingosine-1-phosphate (S1P) receptor antagonist biological activity” (Allergan, Inc., priority 2007, dated 2013) can be followed below.

The experiment has as its target human S1P3 receptor (Homo sapiens (Human), UniProt Q99500). The experiment is described as follows: Activation or block of activation of human S1P3 receptor, Ca+2 FLIPR assay. It is filed as cell-based. As to conditions: for Kb: second concentration in the cell, read-out: S1P3 Kb. The protocol:
Compounds were assessed for their ability to activate or block activation of the human S1P3 receptor in T24 cells stably expressing the human S1P3 receptor. Ten thousand cells/well were plated into 384-well poly-D-lysine coated plates one day prior to use. The growth media for the S1P3 receptor expressing cell line was McCoy's 5A medium supplemented with 10% charcoal-treated fetal bovine serum (FBS), 1% antibiotic-antimycotic and 400 μg/ml geneticin. On the day of the experiment, the cells were washed twice with Hank's Balanced Salt Solution supplemented with 20 mM HEPES (HBSS/Hepes buffer). […] Extracellular dye was removed by washing the cell plates four times prior to placing the plates in the FLIPR (Fluorometric Imaging Plate Reader, Molecular Devices). Ligands were diluted in HBSS/Hepes buffer and prepared in 384-well microplates. The positive control, Sphingosine-1-Phosphate (S1P), was diluted in HBSS/Hepes buffer with 4 mg/ml fatty acid free bovine serum albumin. The FLIPR transferred 12.5 μl from the ligand microplate to the cell plate and took fluorescent measurements for 75 seconds, taking readings every second, and then for 2.5 minutes, taking readings every 10 seconds. […] IC50 values were determined through a […] analysis using the Levenburg Marquardt algorithm.

The mark [1] stands for this setting: T24 cells stably expressing the human S1P3 receptor, FLIPR Ca+2 response, 0.61 nM to 10,000 nM, read-out: S1P3 IC50.
Setting [2] is: T24 cells stably expressing the human S1P3 receptor, value in brackets.
Where [3] appears, read: T24 cells stably expressing the human S1P3 receptor.

Where two headings read alike, the source gives them in different places.

Sequence of human S1P3 receptor (Q99500 whole entry): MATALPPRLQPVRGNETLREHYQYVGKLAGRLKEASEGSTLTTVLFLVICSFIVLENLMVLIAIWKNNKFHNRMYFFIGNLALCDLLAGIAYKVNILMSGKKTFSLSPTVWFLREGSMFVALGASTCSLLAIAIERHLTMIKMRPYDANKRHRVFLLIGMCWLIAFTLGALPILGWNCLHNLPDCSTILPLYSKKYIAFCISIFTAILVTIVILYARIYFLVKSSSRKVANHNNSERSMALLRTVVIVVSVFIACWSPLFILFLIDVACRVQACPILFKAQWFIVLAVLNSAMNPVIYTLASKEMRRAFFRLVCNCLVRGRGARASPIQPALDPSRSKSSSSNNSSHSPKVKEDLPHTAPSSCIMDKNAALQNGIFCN

Take `CC(C)c1c(C(=O)NCc2ccc(F)c(F)c2)c2ccc(OC3CCCO3)cc2n1Cc1ccccn1` (stereo not drawn) [drawing 164]: under setting [1], the IC50 (usually the concentration that gives 50% inhibition) worked out at 9 nM. Also, under setting [2], the “S1P3 (% inh)” value was 100%.
The matching figures for `CC(C)c1c(C(=O)NCc2ccc(F)c(F)c2)c2ccc(OC3CCN(C(=O)OC(C)(C)C)C3)cc2n1Cc1ccccc1` (stereo not drawn): 673 nM and 100%.
Regarding `CC(C)NCc1ccc2c(C(=O)NCc3ccc(F)c(F)c3)c(C(C)C)n(Cc3ccccc3)c2c1`, under setting [1], the IC50 worked out at 2300 nM. Besides, the “S1P3 (% inh)” value under setting [2] is listed as 84%.
Regarding `CC(C)c1c(C(=O)NCc2ccc(F)c(F)c2)c2ccc(OC3CCCC3)cc2n1Cc1ccccn1`, the half-inhibitory concentration (IC50) under setting [1] stood at 3 nM. Also, under setting [3], the Kb turned out to be 4 nM. Also, under setting [2], the “S1P3 (% inh)” value stood at 100%.
As to `Cc1cc(Cn2c(C(C)C)c(C(=O)NCc3ccc(F)c(F)c3)c3ccc(OC4CCCC4)cc32)no1` [Compound 219, 6-(Cyclopentyloxy)-N-(3,4-difluorobenzyl)-2-isopropyl-1-((5-methylisoxazol-3-yl)methyl)-1H-indole-3-carboxamide], the IC50 under setting [1] was 38 nM. Moreover, the “S1P3 (% inh)” value under setting [2] came out at 99%.
The like results for `CC(C)c1c(C(=O)NCc2ccc(F)cc2)c2ccc(NC3CCC3)cc2n1Cc1ccccc1` [Compound 195, 1-Benzyl-6-(cyclobutylamino)-N-(4-fluorobenzyl)-2-isopropyl-1H-indole-3-carboxamide] were, in that order, 51 nM and 99%.
On to `CC(C)COc1ccc2c(C(=O)NCc3ccc(F)c(F)c3)c(C(C)C)n(Cc3ccccc3)c2c1` [Compound 13, 1-Benzyl-N-(3,4-difluorobenzyl)-6-isobutoxy-2-isopropyl-1H-indole-3-carboxamide], for which the 50% inhibitory concentration (IC50) under setting [1] is 1.2 nM. The Kb under setting [3] came to 1.6 nM. The “S1P3 (% inh)” value under setting [2] turned out to be 100%.
Take `CC(C)c1c(C(=O)NCc2ccc(F)c(F)c2)c2ccc(OC3CCC3)cc2n1Cc1cccnc1` [Compound 165, 6-Cyclobutoxy-N-(3,4-difluorobenzyl)-2-isopropyl-1-(pyridin-3-ylmethyl)-1H-indole-3-carboxamide]: the IC50 under setting [1] amounted to 7 nM. In addition, under setting [2], the “S1P3 (% inh)” value was determined as 100%.
`CCCCOC(=O)c1ccc2c(C(=O)NCc3ccc(F)c(F)c3)c(C(C)C)n(Cc3ccccc3)c2c1`: the half-maximal inhibitory concentration (IC50) under setting [1] turned out to be 4 nM. The “S1P3 (% inh)” value under setting [2] is on record as 97%.
Turning to `CC(=O)Oc1ccc2c(C(=O)NCc3ccc(F)c(F)c3)c(C(C)C)n(Cc3ccccc3)c2c1` [Compound 23, 1-Benzyl-3-(3,4-difluorobenzylcarbamoyl)-2-isopropyl-1H-indol-6-yl Acetate], the “S1P3 (% inh)” value is recorded as 14 nM (100) %. Further, under “read-out: S1P3 IC50”, the half-maximal inhibitory concentration (IC50) amounted to 14 nM.
As to `CC(C)c1c(C(=O)NCc2ccc(F)c(F)c2)c2ccc(OC3CCOC3)cc2n1Cc1ccccc1` (stereo not drawn) [Compound 19, 1-Benzyl-N-(3,4-difluorobenzyl)-2-isopropyl-6-(tetrahydrofuran-3-yloxy)-1H-indole-3-carboxamide], under setting [1], the IC50 stood at 6 nM. Besides, the “S1P3 (% inh)” value under setting [2] is 100%.
The matching figures for `CCCNCc1ccc2c(C(=O)NCc3ccc(F)c(F)c3)c(C(C)C)n(Cc3ccccc3)c2c1`: 2600 nM and 77%.
The like results for `CC(C)c1c(C(=O)NCc2cc(F)cc(F)c2)c2ccc(C3=N[C@@H](C)CO3)cc2n1Cc1ccccn1` [Compound 84, (S)—N-(3,5-Difluorobenzyl)-2-isopropyl-6-(4-methyl-4,5-dihydrooxazol-2-yl)-1-(pyridin-2-ylmethyl)-1H-indole-3-carboxamide] were, in that order, 40 nM and 89%.
For `CC(C)c1c(C(=O)NCc2ccc(F)c(F)c2)c2ccc(OC3CCOCC3)cc2n1Cc1ccccc1` [Compound 133, 1-Benzyl-N-(3,4-difluorobenzyl)-2-isopropyl-6-(tetrahydro-2H-pyran-4-yloxy)-1H-indole-3-carboxamide], the “S1P3 (% inh)” value is recorded as 36 nM (99) %. Moreover, the 50% inhibitory concentration (IC50) (read-out: S1P3 IC50) was 36 nM.
On to `CC(C)c1c(C(=O)NCc2ccc(F)c(F)c2)c2ccc(Oc3nccs3)cc2n1Cc1ncco1` [Compound 214, N-(3,4-Difluorobenzyl)-2-isopropyl-1-(oxazol-2-ylmethyl)-6-(thiazol-2-yloxy)-1H-indole-3-carboxamide], for which, under setting [1], the concentration for half-maximal inhibition (IC50) came out at 53 nM. Also, the “S1P3 (% inh)” value under setting [2] is on record as 100%.
On to `CC(=NO)c1c(C(=O)NCc2ccc(F)c(F)c2)c2ccc(OC(C)C)cc2n1Cc1ccccn1` (stereo in doubt) [Compound 110, (E)-N-(3,4-Difluorobenzyl)-2-(1-(hydroxyimino)ethyl)-6-isopropoxy-1-(pyridin-2-ylmethyl)-1H-indole-3-carboxamide], for which half-maximal inhibition (IC50) was put at 384 nM and the “S1P3 (% inh)” value is given as 384 nM (100) %.
Turning to `CCO/N=C/c1ccc2c(C(=O)NCc3ccc(F)c(F)c3)c(C(C)C)n(Cc3ccccc3)c2c1`, the 50% inhibitory concentration (IC50) under setting [1] was determined as 145 nM. Moreover, under setting [2], the “S1P3 (% inh)” value was found to be 99%.
As to `CC(C)c1c(C(=O)NCc2ccc(F)c(F)c2)c2ccc(OC3CCCC3)cc2n1Cc1cccnc1` [Compound 153, 6-(Cyclopentyloxy)-N-(3,4-difluorobenzyl)-2-isopropyl-1-(pyridin-3-ylmethyl)-1H-indole-3-carboxamide], the “S1P3 (% inh)” value is on record as 5 nM (99) %. Besides, the IC50 (read-out: S1P3 IC50) came out at 5 nM.
As to `CC(C)c1c(C(=O)NCc2ccc(F)c(F)c2)c2ccc(CO)cc2n1Cc1ccccc1` [Compound 52, 1-Benzyl-N-(3,4-difluorobenzyl)-6-(hydroxymethyl)-2-isopropyl-1H-indole-3-carboxamide], under setting [1], the IC50 is 2000 nM. Moreover, the “S1P3 (% inh)” value under setting [2] turned out to be 85%.
In the case of `CC(C)c1c(C(=O)NCc2cncc(F)c2)c2ccc(OC3CCCC3)cc2n1Cc1cccnc1` [Compound 163, 6-(Cyclopentyloxy)-N-((5-fluoropyridin-3-yl)methyl)-2-isopropyl-1-(pyridin-3-ylmethyl)-1H-indole-3-carboxamide], under setting [1], the 50% inhibitory concentration (IC50) was determined as 55 nM. Also, under setting [2], the “S1P3 (% inh)” value was 100%.
In the case of `CCOC(=O)c1ccc2c(C(=O)NCc3ccc(F)c(F)c3)c(C(C)C)n(Cc3ccccc3)c2c1` [Compound 43, Ethyl 1-Benzyl-3-(3,4-difluorobenzylcarbamoyl)-2-isopropyl-1H-indole-6-carboxylate], under setting [1], the IC50 was found to be 7 nM. For the same compound, the Kb under setting [3] amounted to 8 nM. Moreover, the “S1P3 (% inh)” value under setting [2] is given as 100%.
For the compound `COc1ccc2c(C(=O)NCc3ccc(F)c(F)c3)c(C(C)C)n(Cc3ccccc3)c2c1` [Compound 7, 1-Benzyl-N-(3,4-difluorobenzyl)-2-isopropyl-6-methoxy-1H-indole-3-carboxamide], the half-inhibitory concentration (IC50) under setting [1] was found to be 560 nM. In addition, under setting [2], the “S1P3 (% inh)” value is given as 98%.
For `CCOC(=O)c1ccc2c(C(=O)NCc3cc(F)cc(F)c3)c(C(C)C)n(Cc3ccccn3)c2c1` [Compound 48, Ethyl 3-(3,5-Difluorobenzylcarbamoyl)-2-isopropyl-1-(pyridin-2-ylmethyl)-1H-indole-6-carboxylate], the concentration for half-maximal inhibition (IC50) under setting [1] was 24 nM. Further, the “S1P3 (% inh)” value under setting [2] came to 100%.
As for `CC(C)Oc1ccc2c(C(=O)NCc3ccc(F)c(F)c3)c(C=O)n(Cc3ccccn3)c2c1` [Compound 105, N-(3,4-Difluorobenzyl)-2-formyl-6-isopropoxy-1-(pyridin-2-ylmethyl)-1H-indole-3-carboxamide], under setting [1], the half-inhibitory concentration (IC50) was 485 nM. In addition, the “S1P3 (% inh)” value under setting [2] stood at 98%.
